Data published in paper PMC2246479, “A phase 1 and pharmacokinetic study of didox: a ribonucleotide reductase inhibitor” (British Journal of Cancer, 1988).

Experiments:
ribonucleotide reductase = settings: cited from earlier work
metastatic carcinoma = test: Clinical response in the phase 1 study; assay type: in vivo, human; settings: 34 patients, any dosage level
[1] = tested on: patients with unresponsive metastatic carcinoma; settings: in vivo
[2] = in vivo
[3] = tested on: pools of deoxyribonucleotides; settings: cited from earlier work
a number of cell lines = settings: continuous drug exposure, no reference given; cited from earlier work
L1210 leukaemia = tested on: L1210 leukaemia; parameters: method as in Van't Riet et al., 1979; settings: L1210 leukaemia bearing female mice; ref Van't Riet et al., 1979; cited from earlier work
[4] = parameters: method as in Van't Riet, personal communication; settings: rats; ref Van't Riet, personal communication; cited from earlier work
NCI tumour panel = tested on: NCI tumour panel; parameters: method as in Elford & Van't Riet, 1985; settings: ref Elford & Van't Riet, 1985; cited from earlier work
mice = settings: single dose, ref CRC Sponsored Toxicity Report, 1984; cited from earlier work
murine tumours = tested on: murine tumours; parameters: method as in Elford et al., 1984; settings: ref Elford et al., 1984; cited from earlier work

In the case of `O=C(NO)c1ccc(O)c(O)c1` [didox, N,3-4 trihydroxy-benzamide], the IC50 (ribonucleotide reductase; enzyme study, no reference given, read-out: Concentration causing 50% inhibition of the target enzyme) is given as 30 µM, the “Inhibition of ribonucleotide reductase compared to hydroxyurea” value (ribonucleotide reductase; ref Elford et al., 1979) is given as “greater inhibition” and the Clinical responses (metastatic carcinoma) is given as “No clinical responses”. For the same compound, the “Maximum tolerated dose / dose that can be safely given” value ([1]; human, iv) was 6 g m-2, the “Patients with severe diarrhoea (grade 4)” value [1] was 2 patients and the “Total white cell count after didox” value [1] was > 20 x 109 1-. The “Dose above which severe nausea and vomiting almost universal” value ([1]; iv) was “above 7 g m- 2”, the “Dose at which dose limiting toxicity was encountered” value ([1]; iv) was 7.5 g m-2 and the “Dose at which minor toxicity was initially noted” value ([1]; iv) was 2,304 mg m 2. The “Steady state volume of distribution” value ([2]; human) was 27.9 ± 6.2 lm-2, the “Total body Clearance” value ([2]; human) was 0.71 ± 0.19 Imin- 1 m-2 and the t1/2 alpha ([2]; human) was 5.2 min. The t1/2 beta ([2]; human) was 41.3 min, the “Time to peak level of didox after injection” value ([2]; human, iv) was at most 5 min and the “Administered dose excreted unchanged in the urine” value ([2]; iv) was “Less than 10%”. The “Time within which the majority of urinary excretion occurred” value ([2]; iv) was at most 6 h, the “Depletion of the pools of all deoxyribonucleotides” value ([3]; ref Elford et al., 1981) was “over 50%” and the “Growth inhibitory concentration in vitro” value (a number of cell lines) was “up to 100 uM”. The Anti-neoplastic activity (L1210 leukaemia) was “anti-neoplastic activity”, the Major metabolites formed [4] was 3,4-dihydroxybenzamide, 3-hydroxy-4-methoxybenzo- hydroxamic acid and 3-methoxy-4-hydroxy- benzohydroxamic acid and the “Activity in the NCI tumour panel” value (NCI tumour panel) was “active”. For the same compound, the LD10 (mice) was 643 mg/kg and the “Interaction with doxorubicin and cyclophosphamide” value (murine tumours) was “act synergistically”.
In the case of `NC(=O)NO` [hydroxyurea, reference compound], the “Inhibition of ribonucleotide reductase in vitro” value (ribonucleotide reductase; ref Elford, 1968) is given as “weak inhibitor” and the Deoxyribonucleotide pools depleted ([3]; ref Thelander & Reichard 1979) is given as “only depleted pools of dGTP and dATP”.
